We go through nine compounds from patent publication US11642413B2, “Compounds for degrading Tau protein aggregates and uses thereof” (Aprinoia Therapeutics Limited, priority 2019, dated 2023).

Series [1] concerns the target heparin-induced aggregated Tau (aTau) (Homo sapiens (Human), UniProt P10636). Kind of series: PBB5 competition assay. In kind it is binding. Conditions: for Bmax: competition assay with PBB5; for IC50: 0.12 μM aTau, 0.1 μM PBB5, 37° C., 1 hour. As to the method: 1 mM IPTG (Sangon Biotech, Cat. No A100487) was used to induce production of tau by bacteria (BL21, Invitrogen, Cat. No C600003) transformed with a full-length 2N4R tau expression plasmid. After 3 hours, cell pellet was resuspended in lysis buffer (100 mM PIPES, 1 mM EGTA, 1 mM MgSO4, pH 6.8) and lysed by sonication followed by centrifugation (15,000 rpm, 15 min, 4° C.). The supernatant was then placed in a boiling water bath for 20 min, followed by centrifugation (15,000 rpm, 15 min, 4° C.). Supernatant was loaded onto a Q-Sepharose® Fast Flow column (GE healthcare, Cat. No 17-0510-01), the flow-through fraction was loaded onto an SP-Sepharose® Fast Flow column (GE healthcare, Cat. No 17-0729-01), and tau protein was eluted with elution buffer (100 mM PIPES, 1 M NaCl, 1 mM EGTA, 1 mM MgSO4, 0.2 M NaCl, pH 6.8). Collected fractions of tau-containing eluates were pooled, concentrated and dialyzed against HEPES buffer (25 mM HEPES, 0.1 mM EDTA, 0.5 mM DTT, 100 mM NaCl, pH 7.2) and stored at −80° C. in small aliquots until use. Protein concentration was determined by UV absorption.
2 μM of tau prepared in 30 mM Tris-HCl, pH 7.5 buffer was incubated in tube with 15 μM heparin (Sigma, Cat. No H3149) at 37° C. for 24 hours.
2 μM of aTau was diluted to 0.12 μM by […] (pH 6.8) and then incubated with 0.1 μM 2-(4-(2-(methylamino)pyridine-5-yl)-1,3-butadiene-1-yl)benzothiazole-6-ol (PBB5) and serially diluted compound (three-fold serial dilution, from 10 to 0.00017 μM) in a 96-well plate (Corning, Cat. No 3573) at 37° C. for 1 hour. Fluorescence intensity (excitation/emission=530/690 nm) of PBB5 was read by microplate spectrometer (EnSpire 2300, PerkinElmer). Percentage of competition was calculated using the following equation: (Max−well of compound alone)/(Max−Min)*100%, where Max=(Tau+PBB5) signals−(buffer+PBB5) signals; and Min=(buffer+PBB5) signals−(buffer+PBB5) signals.
The IC50 value of each compound was calculated with GraphPad Prism software using the “4 Parameter Logistic Model or Sigmoidal Dose-Response Model”: Y=Bottom+(Top−Bottom)/(1+(IC50/X)^HillSlope)

Series [2] is described as follows: In vivo pharmacokinetic study of plasma and brain tissue. Conditions: mice, 1 mg/kg, intravenous. The procedure:
To determine whether the compounds of the present disclosure are capable of crossing the blood brain barrier (BBB), example compound 160313 was administered to mice in a pharmacokinetic study (1 mg/kg, intravenous) of plasma and brain tissue.
Animal Husbandry: Mice were housed at animal room environment with ventilation 15 times/hour, lighting 12 hours/day, temperature 20° C. to 24° C. and humidity 40% to 70%. The study rooms were disinfected and cleaned prior to the start of the study and the operation area was cleaned after each dosing or sampling during the study conduct. All animals had free access to food and water during the study. The animals had access to Certified Rodent Diet and water ad libitum. The nutritional composition and levels of contaminants of the diet and impurities and contaminants of the water were monitored by third organization. The health status of the animals was evaluated in accordance with accepted animal husbandry procedures and deemed suitable for experimental use.
Sample Collection & Processing: Approximately 110 μL of whole blood were collected from all animals via facial or cardiac puncture under anesthesia with Isoflurane into test tubes containing potassium ethylenediaminetetraacetate (K2EDTA) at 0.25, 0.5, 1, 2, 4, 8 and 24 hr post dose. Brian samples were collected at 0.25, 0.5, 1, 2, 4, 8 and 24 hours post dose. A perfusion with pre-cold saline will be conducted via cardiac puncture before brain collection. Blood samples were centrifuged at 2000 g at 4° C. for 5 minutes to obtain plasma samples by transferring the supernatants into new tubes. All plasma and brain samples were stored at approximately −70° C. until analysis.
Bioanalytical Method Development: The concentrations of compound in plasma and brain samples were determined using a liquid chromatography with tandem mass spectrometry (LC-MS/MS) based method.

The target of series [3] is heparin-induced aggregated Tau (aTau), full-length 2N4R tau (Homo sapiens (Human), UniProt P10636). Kind of series: In vitro fluorometric aTau binding assay. Particulars: 0.04 μM aTau, 37° C., 1 hour, fluorescence intensity. The procedure:
1 mM IPTG (Sangon Biotech, Cat. No A100487) was used to induce production of tau by bacteria (BL21, Invitrogen, Cat. No C600003) transformed with a full-length 2N4R tau expression plasmid. After 3 hours, cell pellet was resuspended in lysis buffer (100 mM PIPES, 1 mM EGTA, 1 mM MgSO4, pH 6.8) and lysed by sonication followed by centrifugation (15,000 rpm, 15 min, 4° C.). The supernatant was then placed in a boiling water bath for 20 min, followed by centrifugation (15,000 rpm, 15 min, 4° C.). […] Protein concentration was determined by UV absorption. […]
2 μM aTau was diluted to 0.04 μM with 30 mM Tris-HCl (pH 6.8), and then incubated with serially diluted compound (three-fold serial dilutions, from 10 to 0.00017 μM) in a 96-well plate (Corning, Cat. No 3573) at 37° C. for 1 hour. Fluorescence intensity (excitation/emission=370/500 nm) of APN-0729 was read by microplate spectrometer (EnSpire 2300, PerkinElmer). Compound Kd values were calculated using the following equation: Y=Bmax*X/(Kd+X), where X is the concentration of compound; Y is the fluorescence signal of (compound+aTau)−(compound+DMSO); and Bmax is the maximum signal.

Sequence of heparin-induced aggregated Tau (aTau) (P10636 other isoform, or with tags, fused parts or gaps): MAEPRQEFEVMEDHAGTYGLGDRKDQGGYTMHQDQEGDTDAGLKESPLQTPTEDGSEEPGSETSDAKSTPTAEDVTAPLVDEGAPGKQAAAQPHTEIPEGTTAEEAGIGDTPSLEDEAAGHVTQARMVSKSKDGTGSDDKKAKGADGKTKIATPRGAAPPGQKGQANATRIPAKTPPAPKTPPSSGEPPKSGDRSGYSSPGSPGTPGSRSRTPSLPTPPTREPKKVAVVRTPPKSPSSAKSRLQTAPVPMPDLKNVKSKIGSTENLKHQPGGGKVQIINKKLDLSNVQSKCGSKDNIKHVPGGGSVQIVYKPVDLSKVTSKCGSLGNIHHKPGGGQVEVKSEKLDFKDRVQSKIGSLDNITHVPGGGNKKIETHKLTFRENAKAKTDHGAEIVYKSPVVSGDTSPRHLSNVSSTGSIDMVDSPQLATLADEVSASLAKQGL
Sequence of heparin-induced aggregated Tau (aTau), full-length 2N4R tau (P10636 other isoform, or with tags, fused parts or gaps): as above

Compound `CN(C)c1ccc(-c2ccc(-c3nc4ccc(NCCOCCOCCOCCOCCOCCOc5ccc6c(c5)C(=O)N(C5CCC(=O)NC5=O)C6=O)cc4s3)cc2)cn1` (stereo not drawn) [Compound 159985, 2-[2,6-bis(oxo)piperidin-3-yl]-5-[2-[2-[2-[2-[2-[2-[[2-[4-[6-(dimethylamino)-pyridin-3-yl]phenyl]-1,3-benzothiazol-6-yl]amino]ethoxy]ethoxy]ethoxy]ethoxy]ethoxy]-ethoxy]isoindole-1,3-dione] registered a Bmax in series [1] of 71%.
On to `CN(C)c1ccc(-c2ccc(-c3nc4ccc(NCCOCCOc5ccc6c(c5)C(=O)N(C5CCC(=O)NC5=O)C6=O)cc4s3)cc2)cn1` (stereo not drawn) [Compound 160219, 2-[2,6-bis(oxo)piperidin-3-yl]-5-[2-[2-[[2-[4-[6-(dimethylamino)pyridin-3-yl]phenyl]-1,3-benzothiazol-6-yl]amino]ethoxy]ethoxy]isoindole-1,3-dione], for which the Bmax in series [1] was determined as 69%.
On to `CN(C)c1ccc(-c2ccc(-c3nc4ccc(NCCOCCOCCOCCOCCOCCOc5ccc6c(c5)CN(C5CCC(=O)NC5=O)C6=O)cc4s3)cc2)cn1` (stereo not drawn) [Compound 160273, 3-[6-[2-[2-[2-[2-[2-[2-[[2-[4-[6-(dimethylamino)pyridin-3-yl]phenyl]-1,3-benzothiazol-6-yl]-amino]ethoxy]ethoxy]ethoxy]ethoxy]-ethoxy]ethoxy]-3-oxo-1H-isoindol-2-yl]piperidine-2,6-dione], for which, in series [1], the Bmax is on record as 59%.
In series [1], `CN(C)c1ccc2nc(-c3ccc(-c4ccc(NCCOCCOCCOCCOCCOCCOc5ccc6c(c5)C(=O)N(C5CCC(=O)NC5=O)C6=O)nc4)cc3)sc2c1` (stereo not drawn) [Compound 160275, 2-[2,6-bis(oxo)piperidin-3-yl]-5-[2-[2-[2-[2-[2-[2-[[5-[4-[6-(dimethylamino)-1,3-benzothiazol-2-yl]phenyl]pyridin-2-yl]amino]ethoxy]ethoxy]-ethoxy]ethoxy]ethoxy]ethoxy]isoindole-1,3-dione] returned a Bmax of 96%.
`CN(C)c1ccc(-c2ccc(-c3nc4ccc(NCCOCCOc5ccc6c(c5)CN(C5CCC(=O)NC5=O)C6=O)cc4s3)cc2)cn1` (stereo not drawn) [Compound 160313, 3-[6-[2-[2-[[2-[4-[6-(dimethylamino)pyridin-3-yl]phenyl]-1,3-benzothiazol-6-yl]amino]ethoxy]ethoxy]-3-oxo-1H-isoindol-2-yl]piperidine-2,6-dione] yielded a Bmax in series [1] of 64%. Further, the BBB penetration result in series [2] was “able to penetrate BBB in short period of time”. Further, in series [2] (mouse, brain/plasma, read-out: brain/plasma ratio), the Kp was approximately 0.31. In addition, in series [2] (mouse, Brain), the AUC(0-t) was 117 ng·h/mL, the peak level (Cmax) was 111 ng/mL, the Tmax worked out at 15 min and the half-life was 61.8 min. In series [2] (mouse, Plasma), the AUC(0-t) is 379 ng·h/mL and the half-life was 27.6 min.
Regarding `CN(C)c1ccc2nc(-c3ccc(-c4ccc(NCCOCCOCCOCCOCCOCCOc5ccc6c(c5)CN(C5CCC(=O)NC5=O)C6=O)nc4)cc3)sc2c1` (stereo not drawn) [Compound 160383, 3-[6-[2-[2-[2-[2-[2-[2-[[5-[4-[6-(dimethylamino)-1,3-benzothiazol-2-yl]-phenyl]pyridin-2-yl]amino]ethoxy]ethoxy]ethoxy]ethoxy]-ethoxy]ethoxy]-3-oxo-1H-isoindol-2-yl]piperidine-2,6-dione], the Bmax in series [1] turned out to be 80%.
Compound `CN(C)c1ccc(-c2ccc(-c3cn4cc(OCCOCCN5C(=O)CCC(N6C(=O)c7ccc(O)cc7C6=O)C5=O)ccc4n3)cc2)c(F)n1` (stereo not drawn) [Compound 160570] came in with a Kd in series [3] of 0.36 µM. In series [1], the half-inhibitory concentration (IC50) turned out to be 2.26 µM and the Bmax result is on record as “=100%”.
For `CN(C)c1ccc2nc(-c3ccc(-c4ccc(NCCOCCN5C(=O)CCC(N6C(=O)c7ccc(O)cc7C6=O)C5=O)nc4)cc3)sc2c1` (stereo not drawn) [Compound 160703] the same measures were 0.1 µM, 1 µM and “=100%”.
In the case of `CN(C)c1ccc(-c2ccc(-c3cn4cc(OCCOCCOCCOCCOCCOCCOc5ccc6c(c5)C(=O)N(C5CCC(=O)NC5=O)C6=O)ccc4n3)cc2)c(F)n1` (stereo not drawn) [Compound 160744, 2-[2,6-bis(oxo)piperidin-3-yl]-5-[2-[2-[2-[2-[2-[2-[2-[4-[6-(dimethyl-amino)-2-fluoro-pyridin-3-yl]phenyl]imidazo[1,2-a]pyridin-6-yl]oxyethoxy]ethoxy]ethoxy]-ethoxy]ethoxy]ethoxy]isoindole-1,3-dione], in series [1], the Bmax came out at 113%.
